Data: patent US12575567B2, “Fungicidal compositions” (priority 2020, dated 2026)
Where “and” joins values, the source holds several entries; their conditions need not be identical. Equal entries are not always repeated. Numbered stars: 1 amine (or outer) side, 2 acyl side, 3 side chain; on linkers, the order of the positions; unused ones are H or OH. Square brackets hold non-standard residues; d marks the D form. Peptide text beside a SMILES is read from it. X1 = CC[C@@H](C)[C@@H](O[*:1])C(=O)[*:2]; NMeVal(β-OH) = CN[C@H](C(=O)O)C(C)(C)O; NMeF = CN[C@@H](Cc1ccccc1)C(=O)O; aIle = CC[C@@H](C)[C@H](N)C(=O)O; NMeV = CN[C@H](C(=O)O)C(C)C

How the values were obtained:
Botrytis cinerea = experiment: Liquid culture test in well plates, Botrytis cinerea (Gray Mould), Example 1-1; assay type: cell-based; conditions: 72 hours; for (A) inhibition: Aureobasidin A alone
Experimental: (§1) Mycelia fragments or conidia suspensions of a fungus, prepared either freshly from liquid cultures of the fungus or from cryogenic storage, are directly mixed into nutrient broth. DMSO solutions of the test compound (max. 10 mg/mL) is diluted with 0.025% Tween20 by factor 50 and 10 μL of this solution is pipetted into a microtiter plate (96-well format). […] The test plates are incubated in the dark at 24° C. and 96% relative humidity (rh). The inhibition of fungal growth is determined photometrically and visually after 3-7 days, depending on the pathosystem, and percent antifungal activity relative to the untreated check is calculated.
Conidia of the fungus from cryogenic storage were directly mixed into nutrient broth (PDB potato dextrose broth). After placing a DMSO solution of the test compositions into a microtiter plate (96-well format), the nutrient broth containing the fungal spores was added.

Alternaria solani = experiment: Liquid culture test in well plates, Alternaria solani (Early Blight of Tomato/Potato), Example 1-2; assay type: cell-based; conditions: 48 hours; for (A) inhibition: Aureobasidin A alone
Experimental: as §1, with “The inhibition of fungal growth is determined photometrically and visually after 3-7 days, depending on the pathosystem, and percent antifungal activity relative to the untreated check is calculated.” left out
Conidia of the fungus from cryogenic storage were directly mixed into nutrient broth (PDB potato dextrose broth). After placing a DMSO solution of the test compositions into a microtiter plate (96-well format) the nutrient broth containing the fungal spores was added.

[1] = component (B) alone, 0.0031 ppm
[2] = component (B) alone, 0.0250 ppm
[3] = component (B) alone, 0.1250 ppm
[4] = Alternaria solani, component (B) alone
[5] = component (B) alone, 0.0016 ppm
[6] = component (B) alone, 0.0125 ppm

Structure (SMILES): Cn1cc(C(=O)Nc2cccc3c2[C@@H]2CC[C@H]3C2=C(Cl)Cl)c(C(F)F)n1 (racemic) [Benzovindiflupyr, benzovindiflupyr]
- (B) inhibition (Botrytis cinerea; [1]): 26%
- (B) inhibition (Botrytis cinerea; [2]): 57%

Structure (SMILES): CC[C@@H](C)[C@@H]1NC(=O)[C@@H]2CCCN2C(=O)[C@H](Cc2ccccc2)N(C)C(=O)[C@H](Cc2ccccc2)NC(=O)[C@H](C(C)C)N(C)C(=O)[C@@H]([C@H](C)CC)OC(=O)[C@H](C(C)(C)O)N(C)C(=O)[C@H](CC(C)C)NC(=O)[C@H](C(C)C)N(C)C1=O [Aureobasidin A] (cyclo(F[NMeF]P[aIle][NMeV]L[NMeVal(β-OH)][X1][NMeV]))
- (A) inhibition (Alternaria solani; 0.0001 ppm): 8% and 2% and 0%
- (A) inhibition (Alternaria solani; 0.0002 ppm): 2% and 0%
- (A) inhibition (Alternaria solani; 0.0003 ppm): 0% and 3%
- (A) inhibition (Alternaria solani; 0.0006 ppm): 9% and 6% and 0%
- (A) inhibition (Alternaria solani; 0.0012 ppm): 0%
- (A) inhibition (Alternaria solani; 0.0025 ppm): 2% and 1% and 0%
- (A) inhibition (Alternaria solani; 0.005 ppm): 12%
- (A) inhibition (Alternaria solani; 0.0100 ppm): 0%
- (A) inhibition (Alternaria solani; 0.040 ppm): 46%
- (A) inhibition (Botrytis cinerea; 0.0002 ppm): 0%
- (A) inhibition (Botrytis cinerea; 0.0003 ppm): 0% and 3%
- (A) inhibition (Botrytis cinerea; 0.0006 ppm): 0%
- (A) inhibition (Botrytis cinerea; 0.0012 ppm): 0% and 7% and 8%
- (A) inhibition (Botrytis cinerea; 0.0100 ppm): 23% and 25% and 24%
- (A) inhibition (Botrytis cinerea; 0.0200 ppm): 38% and 50% and 33%
- (A) inhibition (Botrytis cinerea; 0.040 ppm): 85%

Structure (SMILES): CO/C=C(/C(=O)OC)c1ccccc1Oc1cc(Oc2ccccc2C#N)ncn1 [Azoxystrobin, azoxystrobin]
- (B) inhibition (Botrytis cinerea; component (B) alone, 0.0313 ppm): 31%
- (B) inhibition (Botrytis cinerea; [3]): 61%

Structure (SMILES): COc1ccnc(C(=O)N[C@@H](C)C(=O)O[C@@H](C)C(c2ccc(F)cc2)c2ccc(F)cc2)c1OC(C)=O [Florylpicoxamid, florylpicoxamid]
- (B) inhibition (Botrytis cinerea; component (B) alone, 0.0625 ppm): 56%
- (B) inhibition (Botrytis cinerea; [3]): 59%

Structure (SMILES): O=[N+]([O-])c1cc(C(F)(F)F)c(Cl)c([N+](=O)[O-])c1Nc1ncc(C(F)(F)F)cc1Cl [Fluazinam, fluazinam]
- inhibition at 0.0003 ppm (Alternaria solani; Alternaria solani, component (B) alone, 0.0003 ppm): 11%
- inhibition at 0.0025 ppm (Alternaria solani; Alternaria solani, component (B) alone, 0.0025 ppm): 11%
- inhibition at 0.005 ppm (Alternaria solani; Alternaria solani, component (B) alone, 0.0050 ppm): 11%
- inhibition at 0.0006 ppm (Botrytis cinerea; Botrytis cinerea, component (B) alone, 0.0006 ppm): 3%
- inhibition at 0.0012 ppm (Botrytis cinerea; Botrytis cinerea, component (B) alone, 0.0012 ppm): 6%
- inhibition at 0.0025 ppm (Botrytis cinerea; Botrytis cinerea, component (B) alone, 0.0025 ppm): 8%
- inhibition at 0.005 ppm (Botrytis cinerea; Botrytis cinerea, component (B) alone, 0.0050 ppm): 6%
- inhibition at 0.01 ppm (Botrytis cinerea; Botrytis cinerea, component (B) alone, 0.0100 ppm): 8%

Structure (SMILES): O=C(NCCc1ncc(C(F)(F)F)cc1Cl)c1ccccc1C(F)(F)F [Fluopyram, fluopyram, reference compound]
- inhibition at 0.0313 ppm (Alternaria solani; [4]): 49%
- inhibition at 0.0625 ppm (Alternaria solani; Alternaria solani, component (B) alone, 0.0625 ppm): 63%
- inhibition at 0.125 ppm (Botrytis cinerea; Botrytis cinerea, component (B) alone, 0.1250 ppm): 42%

Structure (SMILES): CC(C)c1ccc(Cl)cc1CN(C(=O)c1c(C(F)F)nn(C)c1F)C1CC1 [Isoflucypram, isoflucypram, reference compound]
- (B) inhibition (Alternaria solani; [5]): 22%
- (B) inhibition (Botrytis cinerea; [1]): 37%

Structure (SMILES): Cc1cccc(-n2nnn(C)c2=O)c1COc1ccn(-c2ccc(Cl)cc2)n1 [Metyltetrapole, metyltetrapole]
- (B) inhibition (Alternaria solani; [6]): 73%
- (B) inhibition (Botrytis cinerea; [6]): 43%
- (B) inhibition (Botrytis cinerea; [2]): 56%

Structure (SMILES): CON(C(=O)c1cn(C)nc1C(F)F)C(C)Cc1c(Cl)cc(Cl)cc1Cl (stereo not shown) [Pydiflumetofen, pydiflumetofen, reference compound]
- (B) inhibition (Alternaria solani; component (B) alone, 0.0008 ppm): 28%
- (B) inhibition (Alternaria solani; [1]): 71%
- (B) inhibition (Botrytis cinerea; [5]): 27%

Structure (SMILES): CON=C(C(=O)OC)c1ccccc1CON=C(C)c1cccc(C(F)(F)F)c1 [Trifloxystrobin, trifloxystrobin, reference compound]
- inhibition at […] (Alternaria solani; Alternaria solani, component (B) alone, 0.0078 ppm): 44%
- inhibition at 0.0313 ppm (Alternaria solani; [4]): 71%
